Test results as given in patent US8563254B2, “Biomarkers of tumor pharmacodynamic response” (Novartis AG, priority 2009, dated 2013).

Tests used:
A375 tumor-bearing mice = assay: Serum IL-8 / mouse KC in A375 mouse xenograft model; format: in vivo; parameters: drop of serum IL-8 levels / time at which serum IL-8 recovered to pre-treatment level: dose or concentration left out as unconfirmed
Protocol: The in vivo study was carried out in strict accordance with Swiss law for animal protection and was approved by the Swiss Cantonal Veterinary Office of Basel-Stadt. GTL-16 (4×10^6) and A375 cells (5×10^6) were inoculated subcutaneously in the right flank in 200 μl Hanks' balanced salt solution (HBSS) or PBS, respectively. Invasive procedures were performed under Forene anesthesia. All experiments were performed in female Harlan HsdNpa: Athymic Nude-nu mice (Laboratory Animal Services, Novartis Pharma AG, Basel). The animals were kept under optimized hygienic conditions with 12 hr dark, 12 hr light conditions. The animals were fed food and water ad libitum. […] Mice in the control group were injected with the vehicle (D5W). Serum was isolated and tumors dissected over the time course 0-168 hr. Tumors were cut in two halves. One half was paraffin embedded and the other snap frozen, and stored at −80° C.
Human IL-8 levels in cell culture supernatants treated with NVP-AUY922 were initially assessed as part of a multiplexed bead-based cytokine panel (hu 27-plex panel I, Bio-rad Laboratories, Hercules, Calif., USA) with a BioPlex Suspension Array System (Bio-rad). Human IL-8 and mouse KC levels in serum derived from GTL-16 and A375 tumor-bearing mice treated with NVP-AUY922 were measured by single-plex cytokine bead-based assay (Milliplex, Millipore, Billerica, Mass., USA). The BioPlex system uses a liquid suspension array of beads. The beads align in a single file through a flow cell to the detector, where a red classification laser at a wavelength of 635 nm and a green reporter laser at a wavelength of 532 nm are used to identify each bead's spectral address and associated reporter signal, respectively.

GTL-16 cells [1] = assay: Cell viability by CellTiter-Glo, GTL-16; format: cell-based, human; conditions: GTL-16, 0.3 μM, 72 hr treatment time
Protocol: Cell Viability was measured by CellTiter-Glo assay (Promega U.S., Madison, Wis., USA). GTL-16 and A375 cells were grown in 6-well poly-D-lysine coated plates (BD Biosciences). Cells were treated with NVP-AUY922. Cell viability was measured 16, 24, 48 and 72 hr post-treatment with Hsp90 inhibitor. Briefly supernatants were removed and cells were washed with 3 ml of PBS, pH 7.4. 1 ml of a two component CellTiter-Glo reagent was added to each well and the plates were shaken vigorously for 2 min, followed by 10 min incubation at room temperature in the dark. Luminescent signal intensity was recorded with an integration time set between 0.25 and 1 s/well.

GTL-16 cells [2] = assay: Quantitative RT-PCR of IL-8 mRNA, GTL-16; format: cell-based, human; conditions: GTL-16, 0.3 μM, 16 hr, treated versus untreated
Protocol: Total cellular RNA was extracted from the GTL-16 and A375 cell lines using RNeasy mini kit (Qiagen, Inc., Valencia, Calif., USA). Total RNA quantitation was carried out using a RiboGreen assay (Invitrogen Corporation, Carlsbad, Calif., USA). 1 μg of total RNA was reverse transcribed using AMV reverse transcriptase (Reverse Transcription Kit, Promega U.S., Madison, Wis., USA). A 20 μl reaction cocktail was prepared as follows; 1 μg total RNA in 10 μl of RNase, DNase-free H2O, 4 μl of 25 mM MgCl2, 2 μl of 10× reverse transcriptase buffer, 2 μl of 10 mM dNTP's, 1 μl of 500 μg ml^−1 random hexamers, 1.5 μl of 10 μl ml^−1, and 40 U μl^−1 0.5 μl of recombinant RNase Inhibitor. Real time PCR was performed using a 7900HT fast real-time PCR system (Applied Biosystems, Foster City, Calif., USA) using the Power SYBR Green PCR master mix (Applied Biosystems). The primers for IL-8 and GAPDH were: IL-8 sense: 5′-[…]-3′ (SEQ ID NO:3) and IL-8 antisense:
5′-[…]-3′ (SEQ ID NO:4); and GAPDH sense:
5′-[…]-3′ (SEQ ID NO:5), and GAPDH antisense;
5′-[…]-3′. (SEQ ID NO:6) The amplification process involved an initial 5 min denaturing step at 95° C. This was followed by annealing reactions for both IL-8 and GAPDH, of 45 s at 95° C. with 230 s at 68° C. for 34 cycles and 1 min at 95° C. with 1 min at 60° C. and 1 min 72° C. for 30 cycles, respectively. The final extension was 10 min at 72° C. […]

GTL-16 cells [3] = assay: IL-8 ELISA of GTL-16 culture supernatants; format: cell-based, human
Protocol: A malignant melanoma cell line A375 (American Type Culture Collection, Manassas, Va., USA) and gastric cancer cell line, GTL-16 (Prof Silvia Giordano, Institute for Cancer Research and Treatment, Turin, Italy) were cultured in RPMI 1640 supplemented with 10% FBS and 1% penicillin-streptomycin at 37° C. in 5% CO2 (GIBCO reagents, Invitrogen Corporation, Carlsbad, Calif., USA). Cell numbers were determined by ViCell™ XR Cell Viability Analyzer 2.03 (Beckman Coulter, Inc., Fullerton, Calif., USA). Cells were seeded in poly-D-lysine coated plates (BIOCOAT Cell Environments, Becton Dickinson Biosciences, San Jose, Calif., USA).
Human IL-8 levels in cell culture supernatants from GTL-16 and A375 cells were measured by a sandwich enzyme-linked immunosorbent assay (R&D Systems, Inc., Minneapolis, Minn., USA). Cell culture supernatants were collected from DMSO and NVP-AUY922 treated cells 16, 24, 48 and 72 hr post-treatment and stored at −20° C.
To better characterize the relationship between Hsp90 inhibitor treatment and effects on IL-8 production, GTL-16 and A375 cells were washed and treated for 24 hr with fresh medium containing various concentrations of NVP-AUY922. For this length of treatment time, maximal inhibition of IL-8 accumulation appears to be reached at 0.3 μM as measured by enzyme-linked immunosorbent assay; this equates to 80% and 60% reductions in GTL-16 and A375 cultures, respectively (FIGS. 2A, B).

SMILES: CCNC(=O)c1noc(-c2cc(C(C)C)c(O)cc2O)c1-c1ccc(CN2CCOCC2)cc1 [NVP-AUY922, 5-(2,4-Dihydroxy-5-isopropyl-phenyl)-4-(4-morhpolin-4-ylmethyl-phenyl)-isoxazole-3-carboxylic acid ethylamide]
- time at which serum IL-8 recovered to pre-treatment level (A375 tumor-bearing mice): 168 h
- drop of serum IL-8 levels (A375 tumor-bearing mice; 48 hr post-treatment): approximately 40%
- murine IL-8 levels, measured indirectly as mu KC (A375 tumor-bearing mice; serum): unchanged
- cell viability over time (GTL-16 cells [1]): steadily declines
- decrease in IL-8 mRNA expression (GTL-16 cells [2]): 85%
- time within which IL-8 production dramatically declines (GTL-16 cells [3]; GTL-16, 0.3 μM): ≤ 16 h
- concentration at which maximal inhibition of IL-8 accumulation is reached (GTL-16 cells [3]; GTL-16, 24 hr treatment): 0.3 µM
- inhibition at 0.3 µM (GTL-16 cells [3]; Homo sapiens, GTL-16, 0.3 μM, 24 hr, ELISA, read-out: reduction of IL-8 accumulation (maximal inhibition)): 80%
